This assay deals with CYP3A4(BQ) (Homo sapiens, UniProt P08684). Nature of the assay: CYP3A4 inhibition (substrate BQ). Format: in vitro ADME. Conditions: read-out: Cyp IC50 (μM) 3A4(BQ). On the procedure: CYP (Cytochrome P450) enzymes are the major drug metabolizing enzymes present in the liver. The inhibition of CYP enzyme activity (IC50) for each of CYP1A2, CYP2C19, CYP2C9, CYP2D6, CYP3A4(BFC) and CYP3A4(BQ) is determined for compounds, where inhibition of metabolism of a known substrate leads to a decrease in the fluorescence of the metabolized product. The fluorescence of the product is monitored as a function of compound concentration. Compounds are dissolved in dimethyl sulfoxide to a concentration of 100 mM. These are diluted […], into 82 μL of acetonitrile. An 11 μL aliquot of this solution is then added to 204 μL of cofactor mix (1.3% NADPH Regeneration system Solution A, 1.04% NADPH Regeneration system Solution B from BD Biosciences, 5% acetonitrile and 0.05% dimethyl sulfoxide). These are then serially diluted 1:1 (160 μL to 160 μL co-factor mix) for a total of 10 points. A 10 μL aliquot of this final mixture is dispensed into 384 well assay plates and incubated for 10 minutes at 37° C. Enzyme and substrate mix (10 μL; 0.5 pmol CYP1A2/5 μM CEC; 1.0 pmol CYP2C9/75 μM MFC; 0.5 pmol CYP2C19/25 μM CEC; 1.5 pmol CYP2D6/1.5 μM AMMC; 1.0 pmol CYP3A4/50 μM BFC; or 1.0 pmol CYP3A4/40 μM BQ) is added to these assay plates. Assay plates are incubated at 37° C. (CYP1A2-15 min; CYP2C9-45 min; CYP2C19, 2D6 and 3A4-30 min) and read in a Tecan Safire 2 plate reader (CYP1A2, 2C19 and 3A4 409 ex/460 em; CYP2C9 and 2D6 409 ex/530 em). The signal versus compound concentration is used to determine the IC50. The enzymes and substrates for this assay are obtained from BD Biosciences.
Sequence of CYP3A4(BQ) (P08684 whole entry): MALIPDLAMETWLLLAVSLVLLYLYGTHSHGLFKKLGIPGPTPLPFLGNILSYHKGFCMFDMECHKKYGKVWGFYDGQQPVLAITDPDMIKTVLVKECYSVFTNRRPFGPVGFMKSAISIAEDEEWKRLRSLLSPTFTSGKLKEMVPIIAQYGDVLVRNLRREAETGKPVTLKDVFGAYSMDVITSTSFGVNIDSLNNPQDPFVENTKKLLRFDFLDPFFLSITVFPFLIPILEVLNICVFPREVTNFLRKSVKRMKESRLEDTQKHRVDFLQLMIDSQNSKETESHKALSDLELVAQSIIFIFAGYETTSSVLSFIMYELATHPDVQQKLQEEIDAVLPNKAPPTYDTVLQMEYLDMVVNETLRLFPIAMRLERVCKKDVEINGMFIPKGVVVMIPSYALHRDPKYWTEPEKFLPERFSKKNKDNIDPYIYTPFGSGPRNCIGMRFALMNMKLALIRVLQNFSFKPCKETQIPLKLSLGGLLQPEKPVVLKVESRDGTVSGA

Some results are limits rather than exact numbers.

Consider `CCCS(=O)(=O)Nc1ccc(F)c(C(=O)c2c[nH]c3ncc(-c4ccc5nn(C)cc5c4)cc23)c1F` [P-0010, Propane-1-sulfonic acid {2,4-difluoro-3-[5-(2-methyl-2H-indazol-5-yl)-1H-pyrrolo[2,3-b]pyridine-3-carbonyl]-phenyl}-amide], for which the IC50 was greater than 10 µM.
The result for `CCCS(=O)(=O)Nc1ccc(F)c(C(=O)c2c[nH]c3ncc(-c4ccc5cn(C)nc5c4)cc23)c1F` [P-0011, Propane-1-sulfonic acid {2,4-difluoro-3-[5-(2-methyl-2H-indazol-6-yl)-1H-pyrrolo[2,3-b]pyridine-3-carbonyl]-phenyl}-amide] reads greater than 10 µM; that for `CCCS(=O)(=O)Nc1ccc(F)c(C(=O)c2c[nH]c3ncc(-c4ccc5[nH]ccc5c4)cc23)c1F` [P-0012, Propane-1-sulfonic acid {2,4-difluoro-3-[5-(1H-indol-5-yl)-1H-pyrrolo[2,3-b]pyridine-3-carbonyl]-phenyl}-amide], greater than 10 µM; that for `CCCS(=O)(=O)Nc1ccc(F)c(C(=O)c2c[nH]c3ncc(-c4cccc5nn(C)cc45)cc23)c1F` [P-0015, Propane-1-sulfonic acid {2,4-difluoro-3-[5-(2-methyl-2H-indazol-4-yl)-1H-pyrrolo[2,3-b]pyridine-3-carbonyl]-phenyl}-amide], greater than 10 µM.
Regarding `CCCS(=O)(=O)Nc1ccc(F)c(C(=O)c2c[nH]c3ncc(-c4ccc5ncsc5c4)cc23)c1F` [P-0020, Propane-1-sulfonic acid [3-(5-benzothiazol-6-yl-1H-pyrrolo[2,3-b]pyridine-3-carbonyl)-2,4-difluoro-phenyl]-amide], the half-inhibitory concentration (IC50) is greater than 10 µM.
The result for `CCCS(=O)(=O)Nc1ccc(F)c(C(=O)c2c[nH]c3ncc(-c4ccc5[nH]cc(C)c5c4)cc23)c1F` [P-0023, Propane-1-sulfonic acid {2,4-difluoro-3-[5-(3-methyl-1H-indol-5-yl)-1H-pyrrolo[2,3-b]pyridine-3-carbonyl]-phenyl}-amide] reads greater than 10 µM.
The result for `CCCS(=O)(=O)Nc1ccc(F)c(C(=O)c2c[nH]c3ncc(-c4ccc5cncnc5c4)cc23)c1F` [P-0025, Propane-1-sulfonic acid [2,4-difluoro-3-(5-quinazolin-7-yl-1H-pyrrolo[2,3-b]pyridine-3-carbonyl)-phenyl]-amide] reads greater than 10 µM.
The result for `CCCS(=O)(=O)Nc1ccc(F)c(C(=O)c2c[nH]c3ncc(-c4cnn(C5CCNCC5)c4)cc23)c1F` [P-1002, Propane-1-sulfonic acid {2,4-difluoro-3-[5-(1-piperidin-4-yl-1H-pyrazol-4-yl)-1H-pyrrolo[2,3-b]pyridine-3-carbonyl]-phenyl}-amide] reads greater than 10 µM; that for `O=C(c1c(F)ccc(NS(=O)(=O)c2ccc(C(F)(F)F)cc2)c1F)c1c[nH]c2ncc(-c3cnn(C4CCNCC4)c3)cc12` [P-1004, N-{2,4-Difluoro-3-[5-(1-piperidin-4-yl-1H-pyrazol-4-yl)-1H-pyrrolo[2,3-b]pyridine-3-carbonyl]-phenyl}-4-trifluoromethyl-benzenesulfonamide], greater than 10 µM; that for `Cc1ccc(-c2cnc3[nH]cc(C(=O)c4c(F)ccc(NS(=O)(=O)c5cc(F)ccc5F)c4F)c3c2)cn1` [P-1408, N-{2,4-Difluoro-3-[5-(6-methyl-pyridin-3-yl)-1H-pyrrolo[2,3-b]pyridine-3-carbonyl]-phenyl}-2,5-difluoro-benzenesulfonamide], greater than 10 µM.
Turning to `Cc1ncc(-c2cnc3[nH]cc(C(=O)c4c(F)ccc(NS(=O)(=O)c5cc(F)ccc5F)c4F)c3c2)cn1` [P-1503, N-{2,4-Difluoro-3-[5-(2-methyl-pyrimidin-5-yl)-1H-pyrrolo[2,3-b]pyridine-3-carbonyl]-phenyl}-2,5-difluoro-benzenesulfonamide], the IC50 is greater than 10 µM.

Source of the values: patent US9440969B2, “Compounds and methods for kinase modulation, and indications therefor” (PLEXXIKON INC., priority 2009, dated 2016).
